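Cultured in 96-well plates, cells were exposed to test compound for 48 hours across five concentrations. At the GI50, growth is halved.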 Calls of active or inactive are those of the source. Rule as the data show it: active = GI50 up to about 1.1 µM and inactive = higher.
Experiments:
Assay in all cases: growth of human tumour cells (NCI), 48 h
786-0 = test system: 786-0
A498 = test system: A498
COLO 205 = test system: COLO 205
DU-145 = test system: DU-145
HCT-15 = test system: HCT-15
HOP-62 = test system: HOP-62
HOP-92 = test system: HOP-92
HT-29 = test system: HT-29
M14 = test system: M14
MCF7 = test system: MCF7
MDA-MB-435 = test system: MDA-MB-435
NCI-H23 = test system: NCI-H23
RPMI-8226 = test system: RPMI-8226
SF-539 = test system: SF-539
SK-MEL-2 = test system: SK-MEL-2
SN12C = test system: SN12C
SNB-19 = test system: SNB-19
SR = test system: SR
UACC-62 = test system: UACC-62
UO-31 = test system: UO-31

SMILES: COc1ccc(C2C(C#N)=C(S)N(C3OC(CO)C(O)C(O)C3O)C(c3ccccc3)=C2C(C)=O)cc1 (stereo not given)
- GI50 (786-0): 67.3 µM (inactive)
- GI50 (A498): > 100 µM (inactive)
- GI50 (COLO 205): > 100 µM (inactive)
- GI50 (DU-145): > 100 µM (inactive)
- GI50 (HCT-15): 74.6 µM
- GI50 (HOP-62): 67.1 µM (inactive)
- GI50 (HOP-92): 46.1 µM (inactive)
- GI50 (HT-29): 46.1 µM (inactive)
- GI50 (M14): 65 µM (inactive)
- GI50 (MCF7): 72.1 µM (inactive)
- GI50 (MDA-MB-435): 32.6 µM (inactive)
- GI50 (NCI-H23): > 100 µM (inactive)
- GI50 (RPMI-8226): 51.3 µM (inactive)
- GI50 (SF-539): 78.2 µM (inactive)
- GI50 (SK-MEL-2): 49.7 µM (inactive)
- GI50 (SN12C): > 100 µM (inactive)
- GI50 (SNB-19): 89.3 µM (inactive)
- GI50 (SR): 40.3 µM (inactive)
- GI50 (UACC-62): 58.6 µM (inactive)
- GI50 (UO-31): > 100 µM (inactive)

SMILES: COc1ccccc1Cc1ccc(C2C=CC3(CC(=O)C=C3C)C(=O)C2)o1 (stereo not given)
- GI50 (786-0): 20.2 µM (inactive)
- GI50 (A498): 20 µM (inactive)
- GI50 (COLO 205): 23.2 µM (inactive)
- GI50 (DU-145): 29.4 µM (inactive)
- GI50 (HCT-15): 25.6 µM
- GI50 (HOP-62): 15 µM (inactive)
- GI50 (HOP-92): 20.5 µM (inactive)
- GI50 (HT-29): 35.3 µM (inactive)
- GI50 (M14): 32.1 µM (inactive)
- GI50 (MCF7): 17.1 µM (inactive)
- GI50 (MDA-MB-435): 19.4 µM (inactive)
- GI50 (NCI-H23): 21 µM (inactive)
- GI50 (RPMI-8226): 17.4 µM (inactive)
- GI50 (SF-539): 18.6 µM (inactive)
- GI50 (SK-MEL-2): 14.7 µM (inactive)
- GI50 (SN12C): 22 µM (inactive)
- GI50 (SNB-19): 47.2 µM (inactive)
- GI50 (SR): 18.4 µM (inactive)
- GI50 (UACC-62): 13.9 µM (inactive)
- GI50 (UO-31): 29.1 µM (inactive)

SMILES: Sc1nnc(SCc2ccccc2Cl)c2nc[nH]c12
- GI50 (786-0): > 100 µM (inactive)
- GI50 (A498): > 100 µM (inactive)
- GI50 (COLO 205): > 100 µM (inactive)
- GI50 (DU-145): > 100 µM (inactive)
- GI50 (HCT-15): > 100 µM
- GI50 (HOP-62): > 100 µM (inactive)
- GI50 (HOP-92): > 100 µM (inactive)
- GI50 (HT-29): > 100 µM (inactive)
- GI50 (M14): > 100 µM (inactive)
- GI50 (MCF7): > 100 µM (inactive)
- GI50 (MDA-MB-435): > 100 µM (inactive)
- GI50 (NCI-H23): > 100 µM (inactive)
- GI50 (RPMI-8226): > 100 µM (inactive)
- GI50 (SF-539): > 100 µM (inactive)
- GI50 (SK-MEL-2): > 100 µM (inactive)
- GI50 (SN12C): > 100 µM (inactive)
- GI50 (SNB-19): > 100 µM (inactive)
- GI50 (SR): > 100 µM (inactive)
- GI50 (UACC-62): > 100 µM (inactive)
- GI50 (UO-31): > 100 µM (inactive)
